Experimental data published in patent publication US11958868B2, “Methods of using metal complexes to promote wound healing” (University of Macau, priority 2022, dated 2024).

Legend:
[1] = tested on: HIF-1α activation of the HRE-driven reporter; test: Dual luciferase reporter assay (HRE-driven luciferase activity); assay type: cell-based, Human; details: HEK293 cells; for HRE-driven luciferase activity, second round of screening: complexes 1a-1n, ranking and comparison in words; for HRE-driven luciferase activity (HIF-1α transcriptional activity), first round of screening: complexes 10 μM, complexes 1-14, ranking in words
Procedure: A library of cyclometalated Ir(III)/Rh(III) metal complexes 1-14 (as racemates) with diverse structures were selected for initial screening, in order to identify favorable substructures for the design of the next round of complexes (FIG. 1a). In cells, HIF-1α moves into the nucleus and binds to the hypoxia-response element (HRE) in the promoters of transactivated genes. In this study, the dual luciferase reporter assay (DLR) was performed to monitor the variations of HRE-driven luciferase activity induced by the complexes (FIG. 1f). Human embryonic kidney HEK293 cells were treated with complexes (10 μM) for 8 h, and the HRE-driven luciferase activity of the cell lysates was determined. Complexes that inhibit the interaction between VHL and HIF-1α would be expected to increase the level of HRE-driven luciferase activity in the cell lysates.
HEK293 cells were seeded in six well plates 24 h before transfection. HRE-luciferase plasmid (4 μg) and pRL-TK plasmid (4 μg) and TurboFect reagent (6 μL) were mixed together in serum-free DMEM medium and the resulting solution was incubated for 20 min at room temperature. The mixture was the added dropwise to the HEK293 cells in the wells. The cells were incubated for 32 h at 37° C. in a CO2 incubator before use.
The inhibition of HIF-1α activity was assayed by a reporter assay using a dual luciferase reporter assay system (Promega, Madison, WI, USA). Transiently transfected cells were treated with complexes or P1 for 8 h before measurement. Luciferase activity was integrated over a 10 second period and measured using a spectrophotometer (Spectra-max M5, Molecular Devices, USA). The results were standardization with the activity of Renilla luciferase. All data are expressed as means±SD.

[2] = molecular target: T1, human recombinant VHL:ElonginB:ElonginC (VBC) complex (Homo sapiens, UniProt P40337); test: Fluorescence-based protein thermal shift assay (FTS) of VBC; assay type: binding; details: 100 μM
T1 construct: made in house
T1 sequence (P40337 whole entry): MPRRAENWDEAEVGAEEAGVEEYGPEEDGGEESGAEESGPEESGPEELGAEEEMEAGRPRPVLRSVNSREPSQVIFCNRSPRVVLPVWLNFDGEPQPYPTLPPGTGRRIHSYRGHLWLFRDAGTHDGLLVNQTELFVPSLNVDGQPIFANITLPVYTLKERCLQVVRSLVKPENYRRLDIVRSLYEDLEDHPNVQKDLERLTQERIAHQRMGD
T1 sequence (Q15370 whole entry partner): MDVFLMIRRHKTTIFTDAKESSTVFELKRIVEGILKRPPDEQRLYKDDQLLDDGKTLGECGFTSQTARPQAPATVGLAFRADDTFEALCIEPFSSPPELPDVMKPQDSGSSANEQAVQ
T1 sequence (Q15369 whole entry partner): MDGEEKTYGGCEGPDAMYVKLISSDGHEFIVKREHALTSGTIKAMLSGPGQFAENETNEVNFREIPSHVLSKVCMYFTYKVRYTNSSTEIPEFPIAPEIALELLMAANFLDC
Procedure: HEK293 cells were treated with vehicle DMSO (1% for 2 h), 1a (0.3, 1, 3, 6 and 9 μM for 2 h), VH298 (100 μM for 2 h), MG132 (20 μM for 3 h), or FG-4592 (100 μM for 2 h) before lysis. Cell lysates were collected and incubated with VHL antibody overnight at 4° C. The proteins were immunoprecipitated using agarose beads. The levels of hydroxy-HIF-1α co-precipitated with VHL were detected using a hydroxy-HIF-1α antibody, and then visualized using ECL Western Blotting Detection Reagent (GE Healthcare). (B) Cellular thermal shift assays to monitor cellular target engagement of VHL and HIF-1α. HEK293 cell lysates were treated with 1a (3 μM) at room temperature for 30 min and then heated at different temperature ranging from 48° C. to 68° C. for 5 min. The protein samples were collected and detected by Western blotting using either VHL or PHD2 antibodies. (C) Fluorescence-based protein thermal shift assay of VBC in the presence or absence of VH298 (100 μM) and complex 1a (100 μM). […] Data are expressed as means±SD (n=3 independent experiments for figures a and b, samples for figures c and e), P values were calculated using a two-sided t-test. *P<0.05, **P<0.01 vs. DMSO group.
After incubating HEK293 cell lysates with complex 1a followed by heating to set temperatures, VHL and PHD2 levels in the soluble fraction were quantitated by Western blotting.

[3] = tested on: HIF-1α levels in A498 (VHL-null) cells; test: HIF-1α accumulation in VHL-null A498 cells; assay type: cell-based; details: 1a 3 μM, VH298 100 μM, 2 h
Procedure: FIG. 3 depicts the effect of complex 1a on HIF-1α target gene products in cellulo. (A) Effect of complex 1a on specific proteins (GLUT1, VEGF, and EPO) mediated by HIF-1α in HEK293 cells. HEK293 cells were treated with 1a for 2 h. Cell lysis were collected and analyzed by the Western blotting. (B) Complex 1a has no effect on HIF-1α accumulation in a VHL null cancer cell line. A498 (VHL-null), or HEK293 cells were treated with 1% DMSO, 1a (3 μM), VH298 (100 μM), and FG-4592 (100 μM) for 2 h before lysis. (C) Effect of complex 1a on EPO, GLUT1, and VEGF levels in HEK293 cells with or without HIF-1α knockdown. Left: The expression levels of EPO, GLUT1, and VEGF in HEK293 cells with or without knockdown HIF-1α in the presence or absence of 1a. Right: Densitometry analysis of EPO, GLUT1, and VEGF levels on the Western blot. HIF-1α siRNA [sense, 5′-[…]-3′ (SEQ ID NO:1), antisense, 5′-[…]-3′ (SEQ ID NO:2)]. Negative control (NC) siRNA [sense, 5′-[…]-3′ (SEQ ID NO:3), antisense, 5′-[…]-3′ (SEQ ID NO:4)]. Data are expressed as means±SD (n=3 independent experiments), P values were calculated using a two-sided t-test. #P<0.05, P<0.01 HIF-1α siRNA vs. NC siRNA, *P<0.05, **P<0.01 1a vs. vehicle/DMSO group, respectively. […]

VHL = VHL (Homo sapiens, UniProt P40337); test: Binding affinity to VHL compared with VH298; details: VH298 vs complex 1a
Chain of VHL (P40337 whole entry): as the sequence (P40337 whole entry) above
Chain of VHL (Q15370 whole entry partner): as the sequence (Q15370 whole entry partner) above
Chain of VHL (Q15369 whole entry partner): as the sequence (Q15369 whole entry partner) above

Row | SMILES | HRE-driven luciferase activity, second round of screening ([1]; 8 h) | also measured
1 | Brc1ccc(-c2ccccn2)cc1 [brpy, 2-(4-bromophenyl)pyridine] |  | Effect of isolated ligands on HRE-driven luciferase activity [1]: neither brpy nor dmeophen had any significant effect
2 | Brc1ccc2[c](c1)[Rh-3]13([c]4cc(Br)ccc4-c4cccc[n+]41)([n+]1ccccc1-2)[n+]1ccc(-c2ccccc2)c2ccc4c(-c5ccccc5)cc[n+]3c4c21.F[P-](F)(F)(F)(F)F [1m] | drastically reduced activity | 
3 | COc1cc[n+]2c3c1ccc1c(OC)cc[n+](c13)[Ir-3]213([c]2ccccc2-c2c(C)ccc[n+]21)[c]1ccccc1-c1c(C)ccc[n+]13.F[P-](F)(F)(F)(F)F [1e] | substantially weakens the activity of the complex | 
4 | COC(=O)c1cc[n+]2c(c1)-c1cc(C(=O)OC)cc[n+]1[Rh-3]213([c]2ccccc2-c2ccc4ccccc4[n+]21)[c]1ccccc1-c1ccc2ccccc2[n+]13.F[P-](F)(F)(F)(F)F [compound 7] |  | HRE-driven luciferase activity (HIF-1α transcriptional activity), first round of screening ([1]; 8 h): low activity
5 | Brc1ccc2[c](c1)[Ir-3]13([c]4cc(Br)ccc4-c4cccc[n+]41)([n+]1ccccc1-2)[n+]1cccc2ccc4ccc[n+]3c4c21.F[P-](F)(F)(F)(F)F [1j] | drastically reduced activity | 
6 | Brc1ccc2[c](c1)[Ir-3]13([c]4cc(Br)ccc4-c4cccc[n+]41)([n+]1ccccc1-2)[n+]1ccc(-c2ccccc2)c2ccc4c(-c5ccccc5)cc[n+]3c4c21.F[P-](F)(F)(F)(F)F [1n] | drastically reduced activity | 
7 | Brc1ccc2[c](c1)[Rh-3]13([c]4cc(Br)ccc4-c4cccc[n+]41)([n+]1ccccc1-2)[n+]1ccc(Br)c2ccc4c(Br)cc[n+]3c4c21.F[P-](F)(F)(F)(F)F [1k] | drastically reduced activity | 
8 | CCc1ccc2[c](c1)[Rh-3]13([c]4cc(CC)ccc4-c4cccc[n+]41)([n+]1ccccc1-2)[n+]1ccc(-c2ccccc2)c2ccc4c(-c5ccccc5)cc[n+]3c4c21.F[P-](F)(F)(F)(F)F [compound 5] |  | HRE-driven luciferase activity (HIF-1α transcriptional activity), first round of screening ([1]; 8 h): next most potent candidate
9 | COc1cc[n+]2c(c1)-c1cc(OC)cc[n+]1[Ir-3]213([c]2cc(Br)ccc2-c2cccc[n+]21)[c]1cc(Br)ccc1-c1cccc[n+]13.F[P-](F)(F)(F)(F)F [1h] | led to a decrease in activity | 
10 | Brc1ccc2[c](c1)[Ir-3]13([c]4cc(Br)ccc4-c4cccc[n+]41)([n+]1ccccc1-2)[n+]1ccc(Br)c2ccc4c(Br)cc[n+]3c4c21.F[P-](F)(F)(F)(F)F [1l] | drastically reduced activity | 
11 | COc1cc[n+]2c3c1ccc1c(OC)cc[n+](c13)[Ir-3]213([c]2cc(Br)ccc2-c2cccc[n+]21)[c]1cc(Br)ccc1-c1cccc[n+]13.F[P-](F)(F)(F)(F)F [1c] | drastically reduced activity | 
12 | COc1cc[n+]2c3c1ccc1c(OC)cc[n+](c13)[Rh-3]213([c]2ccccc2-c2cccc[n+]21)[c]1ccccc1-c1cccc[n+]13.F[P-](F)(F)(F)(F)F [1b] | substantially more active than the Rh(III) congener 1b | 
13 | COc1cc[n+]2c3c1ccc1c(OC)cc[n+](c13)[Rh-3]213([c]2cc(Br)ccc2-c2cccc[n+]21)[c]1cc(Br)ccc1-c1cccc[n+]13.F[P-](F)(F)(F)(F)F [compound 1] |  | HRE-driven luciferase activity compared to positive control P1 (and parent complex 1) ([1]; 8 h): slightly higher activity compared to the positive control compound, P1; HRE-driven luciferase activity (HIF-1α transcriptional activity), first round of screening ([1]; 8 h): highest activation of HIF-1α transcriptional activity
14 | F[P-](F)(F)(F)(F)F.O=[N+]([O-])c1cc2ccc[n+]3c2c2c1ccc[n+]2[Ir-3]312([c]3cc(F)cc(F)c3-c3cccc[n+]31)[c]1cc(F)cc(F)c1-c1cccc[n+]12 [compound 9] |  | HRE-driven luciferase activity (HIF-1α transcriptional activity), first round of screening ([1]; 8 h): low activity
15 | Cc1ncsc1-c1ccc(CNC(=O)[C@@H]2C[C@@H](O)CN2C(=O)[C@@H](NC(=O)C2(C#N)CC2)C(C)(C)C)cc1 [VH298, reference compound] |  | Shift of the melting curve of purified VBC (FTS) [2]: ca. 5.0 °C; HIF-1α levels in A498 cells [3]: no increase in HIF-1α levels; Binding affinity to VHL, stronger than complex 1a (VHL): ca. 100 fold
16 | CCc1ccc2[c](c1)[Rh-3]13([c]4cc(CC)ccc4-c4ccc5ccccc5[n+]41)([n+]1ccc(OC)cc1-c1cc(OC)cc[n+]13)[n+]1c-2ccc2ccccc21.F[P-](F)(F)(F)(F)F [compound 6] |  | HRE-driven luciferase activity (HIF-1α transcriptional activity), first round of screening ([1]; 8 h): low activity
17 | COc1cc[n+]2c3c1ccc1c(OC)cc[n+](c13)[Ir-3]213([c]2cc(C)ccc2-c2cccc[n+]21)[c]1cc(C)ccc1-c1cccc[n+]13.F[P-](F)(F)(F)(F)F [1g] | second-most potent compound | 
18 | Brc1ccc2[c](c1)[Rh-3]13([c]4cc(Br)ccc4-c4cccc[n+]41)([n+]1ccccc1-2)[n+]1cccc2ccc4ccc[n+]3c4c21.F[P-](F)(F)(F)(F)F [1i] | drastically reduced activity | 
19 | COc1ccnc2c1ccc1c(OC)ccnc12 [dmeophen, 4,7-dimethoxy-1,10-phenanthroline] |  | Effect of isolated ligands on HRE-driven luciferase activity [1]: neither brpy nor dmeophen had any significant effect
